Experimental data reported in ChEMBL document CHEMBL4308865, “Discovery of 4-alkoxy-6-methylpicolinamide negative allosteric modulators of metabotropic glutamate receptor subtype 5” (Bioorg Med Chem Lett, 2019).
pIC50: −log10 of the molar value.

Experiments:
[1] = biological target: T1, Metabotropic glutamate receptor 5 (Homo sapiens, UniProt P41594); experiment: Negative allosteric modulation of human mGlu5 receptor assessed as inhibition of glutamate induced-calcium mobilization; type: functional
Target sequence in this assay (P41594 whole entry): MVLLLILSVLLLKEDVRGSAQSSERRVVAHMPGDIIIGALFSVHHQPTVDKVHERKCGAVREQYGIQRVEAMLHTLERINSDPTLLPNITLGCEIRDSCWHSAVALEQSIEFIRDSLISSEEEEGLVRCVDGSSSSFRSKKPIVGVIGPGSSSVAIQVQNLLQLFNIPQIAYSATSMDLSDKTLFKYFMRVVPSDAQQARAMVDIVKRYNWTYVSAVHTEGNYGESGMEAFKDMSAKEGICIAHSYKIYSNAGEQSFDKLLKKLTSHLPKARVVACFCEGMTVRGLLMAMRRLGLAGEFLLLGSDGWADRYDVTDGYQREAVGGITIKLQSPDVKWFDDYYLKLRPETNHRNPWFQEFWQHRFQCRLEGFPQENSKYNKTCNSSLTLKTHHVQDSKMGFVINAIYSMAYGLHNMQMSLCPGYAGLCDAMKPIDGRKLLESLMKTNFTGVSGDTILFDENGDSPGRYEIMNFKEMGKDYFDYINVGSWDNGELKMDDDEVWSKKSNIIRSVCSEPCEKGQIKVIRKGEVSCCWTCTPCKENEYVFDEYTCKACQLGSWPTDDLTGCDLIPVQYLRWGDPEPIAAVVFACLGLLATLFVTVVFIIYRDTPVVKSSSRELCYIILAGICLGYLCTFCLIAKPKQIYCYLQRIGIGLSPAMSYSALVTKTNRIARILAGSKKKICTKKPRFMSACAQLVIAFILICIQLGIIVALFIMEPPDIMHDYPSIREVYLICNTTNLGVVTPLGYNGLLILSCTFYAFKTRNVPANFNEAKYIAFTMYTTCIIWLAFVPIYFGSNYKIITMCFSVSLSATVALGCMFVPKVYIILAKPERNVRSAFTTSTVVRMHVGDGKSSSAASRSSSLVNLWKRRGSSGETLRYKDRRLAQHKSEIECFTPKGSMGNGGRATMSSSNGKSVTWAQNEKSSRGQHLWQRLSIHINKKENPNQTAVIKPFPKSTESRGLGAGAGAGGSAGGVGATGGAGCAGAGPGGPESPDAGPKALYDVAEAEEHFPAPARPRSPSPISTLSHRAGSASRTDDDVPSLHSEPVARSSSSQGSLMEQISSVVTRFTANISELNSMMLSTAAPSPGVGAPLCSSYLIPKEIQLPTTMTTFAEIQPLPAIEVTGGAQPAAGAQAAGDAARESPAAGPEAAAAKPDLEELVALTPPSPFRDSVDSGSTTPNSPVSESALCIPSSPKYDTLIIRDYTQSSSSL

[2] = biological target: T1, Metabotropic glutamate receptor 5; experiment: Negative allosteric modulation of human mGlu5 receptor assessed as inhibition of glutamate induced-calcium mobilization relative to glutamate; type: functional
Target sequence in this assay (P41594 21-1212 limits assumed): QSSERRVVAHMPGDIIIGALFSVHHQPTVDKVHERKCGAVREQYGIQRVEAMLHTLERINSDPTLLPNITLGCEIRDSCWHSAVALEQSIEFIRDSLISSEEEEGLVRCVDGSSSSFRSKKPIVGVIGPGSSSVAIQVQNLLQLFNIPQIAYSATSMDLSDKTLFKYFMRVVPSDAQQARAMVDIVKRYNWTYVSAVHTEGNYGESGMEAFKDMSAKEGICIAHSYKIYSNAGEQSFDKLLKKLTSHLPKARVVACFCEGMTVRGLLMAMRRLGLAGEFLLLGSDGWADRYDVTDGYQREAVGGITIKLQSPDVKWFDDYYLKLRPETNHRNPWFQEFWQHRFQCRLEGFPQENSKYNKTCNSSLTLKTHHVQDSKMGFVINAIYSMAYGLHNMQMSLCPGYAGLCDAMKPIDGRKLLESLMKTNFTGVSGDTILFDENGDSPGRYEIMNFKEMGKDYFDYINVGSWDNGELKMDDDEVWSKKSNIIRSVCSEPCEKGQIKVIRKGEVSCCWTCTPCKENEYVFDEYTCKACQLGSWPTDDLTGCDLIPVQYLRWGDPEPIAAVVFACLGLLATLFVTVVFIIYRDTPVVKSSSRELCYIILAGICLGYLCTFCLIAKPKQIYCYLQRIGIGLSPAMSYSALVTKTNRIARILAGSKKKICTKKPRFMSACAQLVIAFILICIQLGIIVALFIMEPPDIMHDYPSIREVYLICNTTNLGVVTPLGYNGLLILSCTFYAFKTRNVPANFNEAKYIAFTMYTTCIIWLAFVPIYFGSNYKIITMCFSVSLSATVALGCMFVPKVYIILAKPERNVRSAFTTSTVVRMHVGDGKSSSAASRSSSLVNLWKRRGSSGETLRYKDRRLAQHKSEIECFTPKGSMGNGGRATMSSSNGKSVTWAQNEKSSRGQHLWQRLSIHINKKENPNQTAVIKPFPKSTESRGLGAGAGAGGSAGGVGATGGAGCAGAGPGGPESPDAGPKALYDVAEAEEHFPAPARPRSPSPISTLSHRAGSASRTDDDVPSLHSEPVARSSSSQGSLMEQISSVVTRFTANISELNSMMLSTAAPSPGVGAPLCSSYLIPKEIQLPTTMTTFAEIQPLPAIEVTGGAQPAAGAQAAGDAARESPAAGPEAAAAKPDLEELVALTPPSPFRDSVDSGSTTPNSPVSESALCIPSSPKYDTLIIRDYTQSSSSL

[3] = Unbound fraction in rat plasma; type: ADME, cell-free
[4] = Unbound fraction in human plasma; type: ADME, cell-free
Cytochrome P450 3A4 = Cytochrome P450 3A4 (Homo sapiens, UniProt P08684); experiment: Inhibition of CYP3A4 (unknown origin); type: ADME
Chain of Cytochrome P450 3A4 (P08684 whole entry): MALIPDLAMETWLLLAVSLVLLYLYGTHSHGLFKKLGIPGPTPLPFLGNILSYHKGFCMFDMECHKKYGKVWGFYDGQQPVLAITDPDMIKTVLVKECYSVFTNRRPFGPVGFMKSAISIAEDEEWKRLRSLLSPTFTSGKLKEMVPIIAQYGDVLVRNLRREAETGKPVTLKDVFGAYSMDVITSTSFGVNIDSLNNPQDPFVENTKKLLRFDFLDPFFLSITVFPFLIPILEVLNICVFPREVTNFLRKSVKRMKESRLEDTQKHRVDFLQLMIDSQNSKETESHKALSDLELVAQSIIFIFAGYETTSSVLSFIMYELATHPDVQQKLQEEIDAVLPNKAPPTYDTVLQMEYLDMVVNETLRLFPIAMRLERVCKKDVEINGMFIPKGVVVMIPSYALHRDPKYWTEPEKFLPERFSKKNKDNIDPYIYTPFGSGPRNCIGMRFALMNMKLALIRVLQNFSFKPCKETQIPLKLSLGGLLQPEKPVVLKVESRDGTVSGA

Cytochrome P450 2D6 = Cytochrome P450 2D6 (Homo sapiens, UniProt P10635); experiment: Inhibition of CYP2D6 (unknown origin); type: ADME
Chain of Cytochrome P450 2D6 (P10635 whole entry): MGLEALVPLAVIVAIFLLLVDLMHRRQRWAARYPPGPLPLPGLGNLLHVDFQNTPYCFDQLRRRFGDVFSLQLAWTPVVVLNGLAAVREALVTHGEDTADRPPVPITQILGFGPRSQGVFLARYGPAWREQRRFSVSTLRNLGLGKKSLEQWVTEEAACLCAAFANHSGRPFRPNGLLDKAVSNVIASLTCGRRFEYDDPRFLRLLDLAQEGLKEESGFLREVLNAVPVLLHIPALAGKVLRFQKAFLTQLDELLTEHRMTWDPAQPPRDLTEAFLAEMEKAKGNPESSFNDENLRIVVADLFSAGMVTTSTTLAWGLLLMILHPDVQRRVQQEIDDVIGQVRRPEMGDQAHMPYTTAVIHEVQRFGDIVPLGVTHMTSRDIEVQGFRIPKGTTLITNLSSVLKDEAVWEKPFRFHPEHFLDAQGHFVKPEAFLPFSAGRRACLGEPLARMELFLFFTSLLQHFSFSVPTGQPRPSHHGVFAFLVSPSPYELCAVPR

Cytochrome P450 1A2 = biological target: T2, Cytochrome P450 1A2 (Homo sapiens, UniProt P05177); experiment: Inhibition of CYP1A2 (unknown origin); type: ADME
T2 sequence (P05177 whole entry): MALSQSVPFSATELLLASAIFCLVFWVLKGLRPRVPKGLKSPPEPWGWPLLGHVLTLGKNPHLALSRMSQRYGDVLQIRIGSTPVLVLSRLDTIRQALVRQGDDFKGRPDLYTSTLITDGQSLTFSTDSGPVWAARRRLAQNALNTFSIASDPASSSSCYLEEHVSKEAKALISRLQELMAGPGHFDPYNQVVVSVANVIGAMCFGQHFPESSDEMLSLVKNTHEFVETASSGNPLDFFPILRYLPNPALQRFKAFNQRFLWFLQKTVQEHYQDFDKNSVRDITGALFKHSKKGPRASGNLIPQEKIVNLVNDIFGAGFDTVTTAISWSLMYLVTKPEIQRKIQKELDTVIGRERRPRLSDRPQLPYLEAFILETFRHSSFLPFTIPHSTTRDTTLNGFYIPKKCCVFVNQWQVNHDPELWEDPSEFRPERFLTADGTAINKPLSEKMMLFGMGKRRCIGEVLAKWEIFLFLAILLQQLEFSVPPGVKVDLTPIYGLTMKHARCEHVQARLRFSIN

Cytochrome P450 2C9 = Cytochrome P450 2C9 (Homo sapiens, UniProt P11712); experiment: Inhibition of CYP2C9 (unknown origin); type: ADME
Chain of Cytochrome P450 2C9 (P11712 whole entry): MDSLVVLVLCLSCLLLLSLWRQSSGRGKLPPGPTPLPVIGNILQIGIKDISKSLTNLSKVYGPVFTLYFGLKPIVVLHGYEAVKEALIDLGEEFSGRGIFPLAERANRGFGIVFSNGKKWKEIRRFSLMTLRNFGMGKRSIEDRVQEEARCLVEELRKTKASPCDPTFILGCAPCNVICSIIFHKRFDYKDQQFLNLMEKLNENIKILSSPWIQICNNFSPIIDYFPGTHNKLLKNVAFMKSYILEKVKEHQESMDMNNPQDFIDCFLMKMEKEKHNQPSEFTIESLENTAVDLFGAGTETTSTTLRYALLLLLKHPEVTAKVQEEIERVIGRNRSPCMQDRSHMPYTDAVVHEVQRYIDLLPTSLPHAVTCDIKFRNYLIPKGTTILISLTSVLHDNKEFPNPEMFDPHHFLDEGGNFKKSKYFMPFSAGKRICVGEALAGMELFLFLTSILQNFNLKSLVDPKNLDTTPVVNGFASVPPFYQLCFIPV

[5] = Half life in rat at 0.2 mg/kg, iv; type: ADME, organism-based; settings: in vivo
[6] = Plasma clearance in rat at 0.2 mg/kg, iv; type: ADME, organism-based
[7] = Volume of distribution at steady state in rat at 0.2 mg/kg, iv; type: ADME, organism-based; settings: in vivo, read-out: Vdss

Row | SMILES | pIC50 [1] | Efficacy [2] | further results
1 | Cc1cc(OC2CCC2)cc(C(=O)Nc2ccccn2)n1 | 7.37 | 1.5% | 
2 | Cc1cc(OC2CCCCC2)cc(C(=O)Nc2ccc(F)cn2)n1 | 5.47 | 10.4% | 
3 | Cc1cc(OCC2CCO2)cc(C(=O)Nc2ccc(F)cn2)n1 (configuration not stated) | 5.61 | -1.1% | 
4 | Cc1cc(O[C@@H]2CCOC2)cc(C(=O)Nc2ccccn2)n1 | 7.64 | 1.7% | 
5 | Cc1cc(O[C@H]2CO[C@H](C)C2)cc(C(=O)Nc2nc(C(F)F)cs2)n1 | 6.04 | 1.6% | 
6 | Cc1cc(O[C@H]2CO[C@@H](C)C2)cc(C(=O)Nc2ccc(F)cn2)n1 | 5.35 | 1.9% | 
7 | Cc1cc(OCC2CCO2)cc(C(=O)Nc2ccccn2)n1 (configuration not stated) | 6.19 | 0.5% | 
8 | Cc1cc(O[C@H]2CO[C@H](C)C2)cc(C(=O)Nc2ccc(F)cn2)n1 | 6.76 | 1.3% | 
9 | COC[C@@H](C)Oc1cc(C)nc(C(=O)Nc2nc(C)cs2)c1 | 5.99 |  | 
10 | COCOc1cc(C)nc(C(=O)Nc2ccc(F)cn2)c1 | 6.16 | 0.1% | 
11 | Cc1cc(O[C@@H]2CO[C@H](C)C2)cc(C(=O)Nc2ccc(F)cn2)n1 | 6.41 | 1.4% | 
12 | Cc1cc(OC2CCCCC2)cc(C(=O)Nc2ccccn2)n1 | 5.85 | 2.1% | 
13 | Cc1cc(OC2CCCOC2)cc(C(=O)Nc2nc(C)cs2)n1 (configuration not stated) | 6.85 | 0.9% | 
14 | Cc1cc(OCC2CCOC2)cc(C(=O)Nc2ccc(F)cn2)n1 (configuration not stated) | 6.15 | 1% | 
15 | Cc1cc(OC2COC2)cc(C(=O)Nc2ccc(F)cn2)n1 | 6.64 | 1.1% | Fu [3]: 0.16; Fu [4]: 0.16; INH (Cytochrome P450 3A4): > 30 µM; INH (Cytochrome P450 2D6): > 30 µM; INH (Cytochrome P450 1A2): 5.8 µM; INH (Cytochrome P450 2C9): > 30 µM; half-life [5]: 28 min; clearance [6]: 179 mL/min/kg; Vd [7]: 4.5 L/kg
16 | Cc1cc(O[C@H]2CO[C@@H](C)C2)cc(C(=O)Nc2nc(C)cs2)n1 | 6.16 | 1.1% | 
17 | Cc1cc(OC2CCOCC2)cc(C(=O)Nc2ccccn2)n1 | 5.81 | 0.9% | 
18 | Cc1cc(OC2CCCC2)cc(C(=O)Nc2ccc(F)cn2)n1 | 5.44 | -0.7% | 
19 | Cc1cc(OC2CCSC2)cc(C(=O)Nc2nc(C)cs2)n1 (configuration not stated) | 7.11 |  | 
20 | COCOc1cc(C)nc(C(=O)Nc2ccccn2)c1 | 6.92 | 1.1% | 
21 | CC(=O)N1CC(Oc2cc(C)nc(C(=O)Nc3nc(C)cs3)c2)C1 | 6.41 |  | 

Row | SMILES | pIC50 [1] | Efficacy [2] | further results
22 | Cc1cc(O[C@H]2CO[C@H](C)C2)cc(C(=O)Nc2nc(C(F)(F)F)cs2)n1 | 5.28 | 2.7% | 
23 | Cc1cc(OC2CSC2)cc(C(=O)Nc2nc(C)cs2)n1 | 7.51 |  | 
24 | Cc1cc(O[C@@H]2CO[C@@H](C)C2)cc(C(=O)Nc2ccc(F)cn2)n1 | 5.69 | 2.6% | 
25 | Cc1cc(OC2CCCOC2)cc(C(=O)Nc2ccc(F)cn2)n1 (configuration not stated) | 6.30 | 0.2% | 
26 | Cc1cc(OC2C[S+]([O-])C2)cc(C(=O)Nc2nc(C)cs2)n1 (configuration not stated) | 6.84 |  | 
27 | Cc1cc(OC2COC2)cc(C(=O)Nc2nc(C)cs2)n1 | 7.29 | 0.5% | 
28 | Cc1cc(OC2CCOCC2)cc(C(=O)Nc2ccc(F)cn2)n1 | 5.71 | -0.2% | 
29 | Cc1cc(OC2CCCOC2)cc(C(=O)Nc2ccccn2)n1 (configuration not stated) | 6.65 | 0.7% | 
30 | Cc1cc(O[C@H]2CO[C@H](C)C2)cc(C(=O)Nc2nc(C)c(F)s2)n1 | 5.89 | 3.8% | 
31 | Cc1cc(O[C@H]2CCOC2)cc(C(=O)Nc2ccc(F)cn2)n1 | 6.18 | 1% | 
32 | Cc1cc(OC2COC2)cc(C(=O)Nc2ccccn2)n1 | 7.18 | 1.3% | 
33 | Cc1cc(OC2CN(S(C)(=O)=O)C2)cc(C(=O)Nc2nc(C)cs2)n1 | 6.30 |  | 
34 | Cc1cc(O[C@H]2CCOC2)cc(C(=O)Nc2nc(C)cs2)n1 | 6.97 | 1.4% | 
35 | Cc1cc(OCC2COC2)cc(C(=O)Nc2nc(C)cs2)n1 | 6.87 | 1.5% | 
36 | Cc1cc(OCC2CCCO2)cc(C(=O)Nc2ccccn2)n1 (configuration not stated) | 6.14 | 0.8% | 
37 | Cc1cc(O[C@H]2CO[C@H](C)C2)cc(C(=O)Nc2nc(C3CC3)cs2)n1 | 6.05 | 1.3% | 
38 | Cc1cc(OCC2CCCO2)cc(C(=O)Nc2nc(C)cs2)n1 (configuration not stated) | 6.56 | 1.5% | 
39 | Cc1cc(O[C@H]2CCOC2)cc(C(=O)Nc2ccccn2)n1 | 6.71 | 1.3% | 
40 | Cc1cc(OC2CCC2)cc(C(=O)Nc2nc(C)cs2)n1 | 7.24 | 1.5% | 
41 | Cc1cc(OC2CS(=O)(=O)C2)cc(C(=O)Nc2nc(C)cs2)n1 | 6.41 |  | 
42 | COCOc1cc(C)nc(C(=O)Nc2nc(C)cs2)c1 | 6.99 | 1.9% | 

Row | SMILES | pIC50 [1] | Efficacy [2] | further results
43 | Cc1cc(OCC2CCO2)cc(C(=O)Nc2nc(C)cs2)n1 (configuration not stated) | 6.40 | 1.2% | 
44 | Cc1cc(OC2CCCC2)cc(C(=O)Nc2nc(C)cs2)n1 | 6.83 | 1.5% | 
45 | Cc1cc(OC2CCCCC2)cc(C(=O)Nc2nc(C)cs2)n1 | 5.68 | 1.9% | 
46 | Cc1cc(O[C@@H]2CO[C@@H](C)C2)cc(C(=O)Nc2nc(C)cs2)n1 | 6.40 | 1.7% | 
47 | Cc1cc(OCC2COC2)cc(C(=O)Nc2ccccn2)n1 | 6.41 | 0.8% | 
48 | Cc1cc(OC2CCOCC2)cc(C(=O)Nc2nc(C)cs2)n1 | 6.35 | 0.7% | 
49 | Cc1cc(OCC2CCOC2)cc(C(=O)Nc2ccccn2)n1 (configuration not stated) | 6.68 | 1.1% | 
50 | Cc1cc(O[C@H]2CO[C@H](C)C2)cc(C(=O)Nc2nc(CF)cs2)n1 | 6.74 | 1.1% | 
51 | Cc1cc(OCC2CCOC2)cc(C(=O)Nc2nc(C)cs2)n1 (configuration not stated) | 6.70 | 1.1% | 
52 | CO[C@H](C)COc1cc(C)nc(C(=O)Nc2nc(C)cs2)c1 | 6.84 |  | Fu [3]: 0.09; Fu [4]: 0.07
53 | Cc1cc(O[C@@H]2CO[C@H](C)C2)cc(C(=O)Nc2nc(C)cs2)n1 | 6.95 | 2.1% | 
54 | Cc1cc(OCC2COC2)cc(C(=O)Nc2ccc(F)cn2)n1 | 5.37 | -3.4% | 
55 | Cc1cc(OC2CCC2)cc(C(=O)Nc2ccc(F)cn2)n1 | 6.74 | 1.6% | 
56 | COC[C@H](C)Oc1cc(C)nc(C(=O)Nc2nc(C)cs2)c1 | 6.03 |  | 
57 | COc1cc(C)nc(C(=O)Nc2ccc(F)cn2)c1 | 5.14 | 5.5% | 
58 | Cc1cc(OC2CCCC2)cc(C(=O)Nc2ccccn2)n1 | 6.74 | 2.1% | 
59 | Cc1cc(OCC2CCCO2)cc(C(=O)Nc2ccc(F)cn2)n1 (configuration not stated) | 5.63 | -0.9% | 
60 | CO[C@@H](C)COc1cc(C)nc(C(=O)Nc2nc(C)cs2)c1 | 5.98 |  | 
61 | Cc1cc(O[C@@H]2CCOC2)cc(C(=O)Nc2ccc(F)cn2)n1 | 7.42 | 1.7% | Fu [3]: 0.26; Fu [4]: 0.07; INH (Cytochrome P450 3A4): > 30 µM; INH (Cytochrome P450 2D6): > 30 µM; INH (Cytochrome P450 1A2): > 30 µM; INH (Cytochrome P450 2C9): > 30 µM; half-life [5]: 46 min; clearance [6]: 136 mL/min/kg; Vd [7]: 5.5 L/kg
